Experimental data: patent US20230083015A1, “SMALL MOLECULE DEGRADERS OF STAT3” (THE REGENTS OF THE UNIVERSITY OF MICHIGAN, priority 2019, published 2023)

Assays:
STAT1 = molecular target: T1, STAT1 (Homo sapiens, UniProt P42224); assay: Estimated DC50 for STAT1 degradation in MOLM-16 cells (immunoblotting); assay type: cell-based; conditions: MOLM-16, 4 h; read-out: Estimated DC50 STAT1
T1 construct: In vitro cultured cells or xenograft tumors were lysed; endogenous in cells; host or cells: MOLM-16
T1 sequence (P42224 1-750): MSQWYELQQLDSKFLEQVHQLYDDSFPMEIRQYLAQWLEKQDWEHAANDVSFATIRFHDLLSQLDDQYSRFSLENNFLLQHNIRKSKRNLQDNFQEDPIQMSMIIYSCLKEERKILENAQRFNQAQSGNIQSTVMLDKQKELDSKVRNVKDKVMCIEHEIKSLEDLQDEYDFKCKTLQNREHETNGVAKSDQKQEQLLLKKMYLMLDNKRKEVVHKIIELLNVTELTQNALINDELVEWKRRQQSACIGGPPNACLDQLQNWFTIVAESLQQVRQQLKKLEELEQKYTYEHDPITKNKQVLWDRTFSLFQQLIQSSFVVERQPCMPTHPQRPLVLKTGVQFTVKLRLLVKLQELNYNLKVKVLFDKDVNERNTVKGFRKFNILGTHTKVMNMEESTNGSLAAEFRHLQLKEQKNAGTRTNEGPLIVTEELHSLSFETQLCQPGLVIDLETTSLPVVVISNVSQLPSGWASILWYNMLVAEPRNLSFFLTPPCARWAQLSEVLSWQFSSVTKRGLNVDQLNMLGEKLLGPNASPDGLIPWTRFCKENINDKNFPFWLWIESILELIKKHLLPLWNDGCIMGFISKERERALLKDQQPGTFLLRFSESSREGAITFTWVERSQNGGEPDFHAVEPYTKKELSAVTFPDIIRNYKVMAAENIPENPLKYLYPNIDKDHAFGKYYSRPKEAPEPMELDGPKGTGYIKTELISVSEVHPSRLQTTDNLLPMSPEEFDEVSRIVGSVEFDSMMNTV
Experimental: (§1) FIG. 62 is a series of four images showing the fluorescent immunoblotting analysis of STAT1 and STAT3 protein in Molm-16 cells after treatment for 4 h with Cpd. Nos. 331, 296, 361, 362, 363, 364, 365, 366, and 367 at the concentrations indicated.
(§2) In vitro cultured cells or xenograft tumors were lysed 1× Cell Lysis Buffer (Cell Signaling Technology, #9803), resolved by SDS-PAGE NuPAGE gel (Thermo Fisher Scientific), and transferred to a PVDF membrane (Bio Rad). For chemiluminescence immunoblotting, membranes were blocked for 1 h using 5% Blotting-Grade Blocker (#1706404, Bio Rad) in 1× Tris-buffered saline with Tween 20 (TBST, Pierce). Antibodies used were: rabbit mAbs for STAT3 (Cell Signaling Technology, #4368, #12640) and p-STAT3 (Y705) (Cell Signaling Technology, #9245, #52075). HRP conjugated goat anti-rabbit IgG (H+L) (#A27036) secondary antibodies was from Thermo Fisher Scientific. GAPDH (Santa Cruz Technology, sc-47724HRP) and actin (Santa Cruz Technology, sc-8432HRP, sc-47778HRP) were loading controls. For fluorescent immunoblotting, membranes were blocked using Odyssey TBS Blocker Buffer (LI-COR). IRDye 680RD and 800CW Dye-labeled secondary antibodies (LI-COR) were used. The washed membranes were scanned using Odyssey CLx imager (LI-COR). The intensity of Western blot signaling was quantitated using the Odyssey software.
(§3) The estimated DC50 in MOLM-16 cells of representative Compounds of the Disclosure against STAT3 and STAT1 is provide in Table 5.

STAT3 = STAT3 (Homo sapiens, UniProt P40763); assay: Estimated DC50 for STAT3 degradation in MOLM-16 cells (immunoblotting); assay type: cell-based; parameters: In vitro cultured cells or xenograft tumors were lysed; endogenous in cells; host or cells: MOLM-16; conditions: MOLM-16, 4 h; read-out: Estimated DC50 STAT3
Chain of STAT3 (P40763 whole entry): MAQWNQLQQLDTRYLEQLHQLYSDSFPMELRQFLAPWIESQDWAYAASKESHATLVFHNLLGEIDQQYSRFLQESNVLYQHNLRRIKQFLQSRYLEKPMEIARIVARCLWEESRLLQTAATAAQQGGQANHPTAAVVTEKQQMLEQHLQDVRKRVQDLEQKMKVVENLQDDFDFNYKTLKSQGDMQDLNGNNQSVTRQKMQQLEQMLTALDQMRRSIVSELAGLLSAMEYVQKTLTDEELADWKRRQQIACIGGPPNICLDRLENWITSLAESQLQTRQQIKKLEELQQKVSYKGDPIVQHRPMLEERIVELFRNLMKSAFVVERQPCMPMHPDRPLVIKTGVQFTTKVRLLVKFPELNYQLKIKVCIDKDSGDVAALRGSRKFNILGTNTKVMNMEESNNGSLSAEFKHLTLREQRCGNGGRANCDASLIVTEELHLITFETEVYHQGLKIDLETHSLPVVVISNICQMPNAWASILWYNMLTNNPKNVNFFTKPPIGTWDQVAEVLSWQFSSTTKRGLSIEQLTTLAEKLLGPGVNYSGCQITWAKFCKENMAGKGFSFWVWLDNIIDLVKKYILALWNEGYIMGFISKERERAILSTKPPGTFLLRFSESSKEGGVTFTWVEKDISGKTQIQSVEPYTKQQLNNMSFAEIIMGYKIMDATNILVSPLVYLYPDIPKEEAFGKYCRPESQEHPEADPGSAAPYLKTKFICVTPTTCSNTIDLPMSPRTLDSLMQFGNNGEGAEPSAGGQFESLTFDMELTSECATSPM
Experimental: as §1, §2, §3

| SMILES | DC50 (STAT1) | DC50 (STAT3) |
| --- | --- | --- |
| CC(=O)N1CC[C@H]2CC[C@@H](C(=O)N[C@@H](CCC(N)=O)C(=O)N[C@@H](Cc3ccc(C(C)(C)C)cc3)C(=O)N3CCC(CCC#Cc4cccc5c4CN(C4CCC(=O)NC4=O)C5=O)CC3)N2C(=O)[C@@H](NC(=O)c2cc3cc(C(F)(F)P(=O)(O)O)ccc3s2)C1 (stereo partly drawn) [Cpd. No. 363, ((2-(((5S,8S,10aR)-3-acetyl-8-(((2S)-5-amino-1-(((2S)-3-(4-(tert-butyl)phenyl)-1-(4-(4-(2-(2,6-dioxopiperidin-3-yl)-1-oxoisoindolin-4-yl)but-3-yn-1-yl)piperidin-1-yl)-1-oxopropan-2-yl)amino)-1,5-dioxopentan-2-yl)carbamoyl)-6-oxodecahydropyrrolo [1,2-a][1,5]diazocin-5-yl)carbamoyl)benzo[b]thiophen-5-yl)difluoromethyl)phosphonic acid] | < 250 nM | < 250 nM |
| CC(C)N1CC[C@H]2CC[C@@H](C(=O)N[C@@H](CCC(N)=O)C(=O)N[C@@H](Cc3ccc(C(C)(C)C)cc3)C(=O)N3CCC(CCC#Cc4cccc5c4CN(C4CCC(=O)NC4=O)C5=O)CC3)N2C(=O)[C@@H](NC(=O)c2cc3cc(C(F)(F)P(=O)(O)O)ccc3s2)C1 (stereo partly drawn) [Cpd. No. 364, ((2-(((5S,8S,10aR)-8-(((2S)-5-amino-1-(((2S)-3-(4-(tert-butyl)phenyl)-1-(4-(4-(2-(2,6-dioxopiperidin-3-yl)-1-oxoisoindolin-4-yl)but-3-yn-1-yl)piperidin-1-yl)-1-oxopropan-2-yl)amino)-1,5-dioxopentan-2-yl)carbamoyl)-3-isopropyl-6-oxodecahydropyrrolo[1,2-a][1,5]diazocin-5-yl)carbamoyl)benzo[b]thiophen-5-yl)difluoromethyl) phosphonic acid] | < 250 nM | < 250 nM |
| CCN1CC[C@H]2CC[C@@H](C(=O)N[C@@H](CCC(N)=O)C(=O)N[C@@H](Cc3ccc(C(=O)N4CCC(F)(F)CC4)cc3)C(=O)N3CCC(CCC#Cc4cccc5c4CN(C4CCC(=O)NC4=O)C5=O)CC3)N2C(=O)[C@@H](NC(=O)c2cc3cc(C(F)(F)P(=O)(O)O)ccc3s2)C1 (stereo partly drawn) [Cpd. No. 365, ((2-(((5S,8S,10aR)-8-(((2S)-5-amino-1-(((2S)-3-(4-(4,4-difluoropiperidine-1-carbonyl)phenyl)-1-(4-(4-(2-(2,6-dioxopiperidin-3-yl)-1-oxoisoindolin-4-yl)but-3-yn-1-yl)piperidin-1-yl)-1-oxopropan-2-yl)amino)-1,5-dioxopentan-2-yl)carbamoyl)-3-ethyl-6-oxodecahydropyrrolo[1,2-a][1,5]diazocin-5-yl)carbamoyl)benzo[b]thiophen-5-yl)difluoromethyl) phosphonic acid] | < 250 nM | < 250 nM |
| CCN1CC[C@H]2CC[C@@H](C(=O)N[C@@H](CCC(N)=O)C(=O)N[C@@H](Cc3ccc(C(=O)N4CCOCC4)cc3)C(=O)N3CCC(CCC#Cc4cccc5c4CN(C4CCC(=O)NC4=O)C5=O)CC3)N2C(=O)[C@@H](NC(=O)c2cc3cc(C(F)(F)P(=O)(O)O)ccc3s2)C1 (stereo partly drawn) [Cpd. No. 366, ((2-(((5S,8S,10aR)-8-(((2S)-5-amino-1-(((2S)-1-(4-(4-(2-(2,6-dioxopiperidin-3-yl)-1-oxoisoindolin-4-yl)but-3-yn-1-yl)piperidin-1-yl)-3-(4-(morpholine-4-carbonyl)phenyl)-1-oxopropan-2-yl)amino)-1,5-dioxopentan-2-yl)carbamoyl)-3-ethyl-6-oxodecahydropyrrolo[1,2-a][1,5]diazocin-5-yl)carbamoyl)benzo[b]thiophen-5-yl)difluoromethyl) phosphonic acid] | < 250 nM | < 250 nM |
| CCN1CC[C@H]2CC[C@@H](C(=O)N[C@@H](CCC(N)=O)C(=O)N[C@@H](Cc3ccc(C(=O)NC4CCCCC4)cc3)C(=O)N3CCC(CCC#Cc4cccc5c4CN(C4CCC(=O)NC4=O)C5=O)CC3)N2C(=O)[C@@H](NC(=O)c2cc3cc(C(F)(F)P(=O)(O)O)ccc3s2)C1 (stereo partly drawn) [Cpd. No. 367, ((2-(((5S,8S,10aR)-8-(((2S)-5-amino-1-(((2S)-3-(4-(cyclohexylcarbamoyl)phenyl)-1-(4-(4-(2-(2,6-dioxopiperidin-3-yl)-1-oxoisoindolin-4-yl)but-3-yn-1-yl)piperidin-1-yl)-1-oxopropan-2-yl)amino)-1,5-dioxopentan-2-yl)carbamoyl)-3-ethyl-6-oxodecahydropyrrolo[1,2-a][1,5]diazocin-5-yl)carbamoyl)benzo[b]thiophen-5-yl)difluoromethyl) phosphonic acid] | < 1000 nM | < 1000 nM |
| CCN1CC[C@H]2CC[C@@H](C(=O)N[C@@H](CCNC(N)=O)C(=O)N[C@@H](Cc3ccc(C(C)(C)C)cc3)C(=O)N3CCC(CCC#Cc4cccc5c4CN(C4CCC(=O)NC4=O)C5=O)CC3)N2C(=O)[C@@H](NC(=O)c2cc3cc(C(F)(F)P(=O)(O)O)ccc3s2)C1 (stereo partly drawn) [compound 355, ((2-(((5S,8S,10aR)-8-(((2S)-1-(((2S)-3-(4-(tert-butyl)phenyl)-1-(4-(4-(2-(2,6-dioxopiperidin-3-yl)-1-oxoisoindolin-4-yl)but-3-yn-1-yl)piperidin-1-yl)-1-oxopropan-2-yl)amino)-1-oxo-4-ureidobutan-2-yl)carbamoyl)-3-ethyl-6-oxodecahydropyrrolo[1,2-a][1,5]diazocin-5-yl)carbamoyl)benzo[b]thiophen-5-yl)difluoromethyl)phosphonic acid] | > 1000 nM | > 1000 nM |
| CCN1CC[C@H]2CC[C@@H](C(=O)N[C@@H](CNC(N)=O)C(=O)N[C@@H](Cc3ccc(C(C)(C)C)cc3)C(=O)N3CCC(CCC#Cc4cccc5c4CN(C4CCC(=O)NC4=O)C5=O)CC3)N2C(=O)[C@@H](NC(=O)c2cc3cc(C(F)(F)P(=O)(O)O)ccc3s2)C1 (stereo partly drawn) [compound 356, ((2-(((5S,8S,10aR)-8-(((2S)-1-(((2S)-3-(4-(tert-butyl)phenyl)-1-(4-(4-(2-(2,6-dioxopiperidin-3-yl)-1-oxoisoindolin-4-yl)but-3-yn-1-yl)piperidin-1-yl)-1-oxopropan-2-yl)amino)-1-oxo-3-ureidopropan-2-yl)carbamoyl)-3-ethyl-6-oxodecahydropyrrolo[1,2-a][1,5]diazocin-5-yl)carbamoyl)benzo[b]thiophen-5-yl)difluoromethyl)phosphonic acid] | > 1000 nM | < 250 nM |
